Source: paper PMC10761396, “Evaluation of new alternative methods for the identification of estrogenic, androgenic and steroidogenic effects: a comparative in vitro/in silico study” (Archives of Toxicology, 2023)
Entries after “also recorded” stand apart in the source; their conditions may differ. Read-outs that look alike come from different tables or passages of the source.

How the values were obtained:
[1] = test system: AR; assay: ToxCast AR assays and final ToxCast call; conditions: for Final "true" call (ToxCast): AR effects, from active assays, cytotoxicity and pathway model; for ToxCast result: AR overall call from Supplementary Table 4; for Final "true" call (ToxCast) AR: from ToxCast assays and ToxCast Pathway Model
Text: (§1) A rich source of data can be found in the EPA's ToxCast database (US EPA). This contains ED data for ~ 1800 chemicals in more than 700 high-throughput assay endpoints that cover a range of high-level cell responses. The US EPA is running an Endocrine Disruption Screening Program (EDSP), with the aim of prioritising chemicals using high-throughput screening methods and computational toxicology approaches to evaluate thousands of chemicals for ED activities. The OECD framework for ED assessment (OECD [2018]) requires animal testing at higher levels, where relevant in vitro alternatives are missing e.g. for developmental, reproductive, neurological and immune effects. However, such follow-up testing is not possible for the cosmetics industry especially in the EU due to the complete animal testing ban which came into force in March 2013 (EU [2009]). Even for other industries, animal models are not suitable for assessing ED effects due to issues relating to ethics, capacity, speed and relevance (Patisaul et al. [2018]). Therefore, chemicals which cannot be evaluated using in vivo method must be assessed using alternative methods e.g. in silico and in vitro methods listed in Levels 1 and 2 of the framework described in the OECD 150 test guideline (OECD [2018]).
(§2) The performance of different in silico models for ED effects tends to be evaluated on single model for a single effect, such as ER or AR binding, agonism or antagonism (normally by the developer), or a limited number of models using multiple chemicals (Weyrich et al. [2022]). Multi-organisation collaborations have also evaluated multiple models for a specific effect e.g. ER (Mansouri et al. [2016]) and AR (Mansouri et al. [2020]) effects. Therefore, we have conducted a side-by-side comparison of multiple different in silico models covering three pathways in ED, namely ER, AR and aromatase inhibition and compared these with ToxCast-derived final calls, as well as with results from in vitro assays. The efficiency of the in silico models was evaluated as a metric for the ability of the in silico model to generate concrete predictions. […] In vivo data were available for some but not all chemicals; therefore, an evaluation of the performance of the methods was made by comparing the derived overall calls from in silico models with those from the ToxCast database. The final call for each chemical evaluated in the ToxCast assays was made by considering the active-flagged assays and the corresponding cytotoxicity levels, the ToxCast Pathway Model (Browne et al. [2015]) and the CERAPP Potency Level (Mansouri et al. [2016]) for ER effects and the ToxCast Pathway Model (Kleinstreuer et al. [2017]) for AR effects (see Online Resource 1 Supplementary Tables 2, 4 and 6 for the outcome of the ER, AR and aromatase ToxCast assays, additional literature and final calls for each chemical and target).

[2] = test system: H295R cells; assay: H295R steroidogenesis assay (oestrogen and androgen production); assay type: cell-based, human; conditions: Homo sapiens, NCI-H295R, 48 h
Protocol: The in vitro H295R Steroidogenesis Assay is based on the human adenocarcinoma cell line, NCI-H295R, in which the human steroidogenesis pathway is fully functional (OECD 2022). The effect of the test chemical on the production of 17β-estradiol and testosterone is measured using ERα CALUX and AR CALUX technology.
The test chemical was tested in two independent assays, each in triplicate.

[3] = target: T1, ERα (Homo sapiens, UniProt P03372); assay: YES (Yeast oestrogen screen) assay, agonist and antagonist mode; conditions: YES antagonist assay
T1 sequence (P03372 1-595): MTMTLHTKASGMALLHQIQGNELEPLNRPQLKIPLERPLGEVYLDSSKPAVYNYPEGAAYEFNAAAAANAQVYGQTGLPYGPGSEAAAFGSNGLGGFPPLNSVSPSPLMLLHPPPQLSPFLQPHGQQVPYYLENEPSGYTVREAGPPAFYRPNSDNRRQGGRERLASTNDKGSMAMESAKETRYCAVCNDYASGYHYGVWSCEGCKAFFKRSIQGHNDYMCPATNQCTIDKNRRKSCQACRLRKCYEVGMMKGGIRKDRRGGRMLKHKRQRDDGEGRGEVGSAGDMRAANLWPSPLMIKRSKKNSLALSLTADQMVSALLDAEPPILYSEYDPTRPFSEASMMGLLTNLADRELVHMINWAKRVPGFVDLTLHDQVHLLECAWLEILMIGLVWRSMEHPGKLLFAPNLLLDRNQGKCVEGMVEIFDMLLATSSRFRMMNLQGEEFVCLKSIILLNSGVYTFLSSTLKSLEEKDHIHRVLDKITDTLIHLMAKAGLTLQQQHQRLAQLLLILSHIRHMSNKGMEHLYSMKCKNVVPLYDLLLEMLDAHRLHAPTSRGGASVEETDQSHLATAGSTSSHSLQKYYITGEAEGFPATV
Protocol: The YES/YAS XL (Xtra Lyticase) assay kit from Xenometrix AG (Allschwil, Switzerland) was conducted according to the Supplier’s instructions.
In the YES assay, human ERα is integrated in the yeast (Saccharomyces cerevisiae) chromosome, and for the YAS assay human AR is integrated (Routledge and Sumpter 1996; Sohoni and Sumpter 1998). […] This enzyme then converts a yellow substrate to a purple metabolite, which can be measured colorimetrically.
Growing yeast cells stably transformed with either hERα (YES) or hAR (YAS) and a β-galactosidase reporter system were exposed to a range of concentrations of each test compound. […] The positive control chemicals for agonistic effects were 17-β estradiol for YES and 5α-dihydrotestosterone for YAS. […] A combination of a fixed concentration of positive control and a range of concentrations of each test chemical were tested. The cells were incubated with each treatment for 18 h at 31°C. The cells were lysed in the presence of the yellow β-galactosidase-substrate, chlorophenol red-β-D-galactopyranoside (CPRG). Yeast cell growth was assessed prior to addition of the lysis buffer by measuring the absorbance at 690 nm. The production of the red metabolite of CPRG was determined by measuring the absorbance at 570 nm. It was corrected for diffraction by cells and debris by a simultaneous measurement at 690 nm. The results were evaluated for estrogenic and androgenic agonistic and antagonistic activity, as well as for yeast growth inhibition or cytotoxicity.
An IR value ≥ IR10 in the YES or YAS agonist assay indicates an agonistic effect (IR10 is defined as the IR which is 10% of (IR max - IR solvent) above the IR solvent. An IR value ≤ IR50 in the YES or YAS antagonist assay indicates a possible antagonistic effect (IR50 is defined as 50% of (IR control - IR solvent), where the IR control is at the corresponding fixed concentration of agonist used: 3.3 × 10^-10 M 17-β estradiol and 3.3 × 10^-9 M 5α-dihydrotestosterone, respectively). […]

[4] = test system: ER; design: method as in US EPA ToxCast; conditions: ref US EPA ToxCast, cited from earlier work; for ToxCast 1: (Comments), efficacy: borderline: less than 50% efficacy; for ToxCast 1: (Active assays), ER assay listed as active: each listed assay name = active-flagged assay
[5] = test system: ER; design: method as in Mansouri et al. 2016; conditions: ref Mansouri et al. 2016; cited from earlier work
[6] = test system: human (non-selective) ER; assay: ER radioligand ([3H]estradiol) receptor-binding assay
Protocol: The chemicals were tested for their ability to bind to different targets. […] Chemicals were incubated at 10 µM with cells overexpressing ER or AR for 24 h at 4°C, after which, the binding of the radiolabeled ligand ([^3H]estradiol for ER and [^3H]methyltrienolone for AR) was measured by liquid scintillation counting. An increase or decrease higher than 50% were considered to represent significant effects. Four chemicals were tested in additional incubations at several concentrations up to the maximum soluble concentration for IC50 or EC50 determination for the associated target. Receptor binding was calculated as a % inhibition of the binding of a radioactively labeled ligand specific for each target.
Each test chemical was tested in a single assay in duplicate.

[7] = target: T1, ERα; assay: (anti-)ERα CALUX receptor transactivation assay; assay type: cell-based; design: expressed in transfected cells; host or cells: CALUX cells (U2-OS is named only for the cytotoxicity CALUX)
Protocol: The human CALUX® assays were used to measure the impact of test compounds on estrogen and androgen pathways. […] Chemicals can activate (or inactivate, in the case of an antagonistic activity) a ligand-specific pathway by binding to the receptor (ER, AR), after which the receptor-ligand complex binds to specific DNA REs […], resulting in increased (or decreased) cellular expression of a marker protein (e.g., luciferase).
Chemicals were dissolved and diluted in DMSO. […] The cytotoxicity of each test chemical was assessed using the U2-OS based cytotoxicity CALUX bioassay. Concentrations causing >20% reduction of luminescence were considered cytotoxic. […] Luciferase production was quantified by measuring luminescence following addition of luciferin. For antagonist assays, a fixed concentration of receptor agonist was co-incubated with a range of concentrations of the test chemical. […] For the AR assays, dihydrotestosterone was the positive control for agonistic effects and flutamide was the positive control for antagonist effects.
Each test chemical was tested in triplicates in two independent experiments.

[8] = test system: AR; design: method as in ToxCast; conditions: ref ToxCast, cited from earlier work; for ToxCast conclusion from assays result: AR sheet; for ToxCast 1: (Active assays), number of positive assays / assays run: ToxCast AR assays
[9] = test system: aromatase; design: method as in US EPA ToxCast; conditions: ref US EPA ToxCast, cited from earlier work
[10] = test system: ER; assay: ToxCast ER assays and final ToxCast call; conditions: for Final "true" call (ToxCast) ER: from active ToxCast assays, cytotoxicity, ToxCast Pathway Model and CERAPP Potency Level; for ToxCast result (ER): overall call from ToxCast data (Supplementary Table 2)
Text: as §1, §2

[11] = test system: aromatase; assay: ToxCast aromatase assays (TOX21_Aromatase_Inhibition) and final ToxCast call; assay type: cell-based; conditions: for ToxCast result: aromatase overall ToxCast call; for Final "true" call (ToxCast) Aromatase inhibition: from ToxCast assays
Text: as §2
Aromatase represents only one enzyme involved in steroidogenesis (the conversion of androgens to oestrogens); therefore, the aromatase assay detects effects on 17β-oestradiol production only. […] It is a cell-based assay in which MCF-7 cells are incubated with the test chemical for 24 h before measuring aromatase activities indirectly via a luciferase-based reporter endpoint which is dependent on the binding of the oestradiol–ER complex to the oestrogen response element. A decrease in luciferase activity can occur as a result of direct inhibition of aromatase (preventing the production of oestradiol) or by preventing oestradiol from binding to the ER and thus the binding to the oestrogen RE which initiates the production of luciferase (Lui et al. [2008]).

[12] = test system: aromatase; design: method as in Lu et al. [2012]; conditions: recombinant and placental microsomal preparations; ref Lu et al. [2012]; cited from earlier work
[13] = test system: AR; conditions: AR pathway model; ref Kleinstreuer et al (2017) 10.1021/acs.chemrestox.6b00347; cited from earlier work
[14] = test system: ER; design: method as in Browne, et al (2015); conditions: ref Browne, et al (2015), cited from earlier work; for ToxCast Pathway Model (AUC): as agonist where given, value above 0.1 = significant interaction
[15] = read-out: Steroidogenesis Androgenicity LEC
[16] = read-out: Steroidogenesis Estrogenicity LEC

| Compound | Final "true" call (ToxCast) [1] | ToxCast result [1] | Final "true" call (ToxCast) AR [1] | minimal effective concentration [2, 15] | minimal effective concentration [2, 16] | ToxCast 1: (Comments), efficacy [4] | ToxCast 1: (Active assays), ER assay listed as active [4] | ToxCast 1: (Active assays), positive/total ER assays [4] | ToxCast conclusion from assays result [4] | CERAPP Potency Level [5] | ToxCast conclusion from assays result [8] | ToxCast 1: (Active assays), number of positive assays / assays run [8] | ToxCast (Aromatase assays), positive/total [9] | Final "true" call (ToxCast) ER [10] | ToxCast result (ER) [10] | ToxCast result [11] | Final "true" call (ToxCast) Aromatase inhibition [11] | aromatase inhibitory action [12] | ToxCast Pathway Model (AUC) [13] | ToxCast Pathway Model (AUC) [14] | also measured |
| --- | --- | --- | --- | --- | --- | --- | --- | --- | --- | --- | --- | --- | --- | --- | --- | --- | --- | --- | --- | --- | --- |
| CCN(CC)c1ccc(C(=O)c2ccccc2C(=O)O)c(O)c1 [DEABA, 2-(4-(diethylamino)-2-hydroxybenzoyl)benzoic acid] | Negative | Negative | Negative | > 100 µM | > 100 µM | Boarderline: less than 50% efficacy (28.5%) | TOX21_ERa_LUC_VM7_Agonist | 1/8 positive | Endocrine Disruption Potential.Significant Estrogen Receptor activity seen | Negative | Endocrine Disruption Potential.Significant Estrogen Receptor activity seen | 1/9 positive | 0/2 positive | Negative | Negative | Negative | Negative |  |  |  | ER antagonism in the YES assay [3]: inconclusive; ER binding outcome [6]: negative; inhibition of control specific binding to the ER ([6]; single-dose screening, 10 µM): less than -25%; Lowest Effective Concentration (LEC), ER agonism [7]: 56 µM; efficacy (assays Comments) ([8]; TOX21_AR_BLA_Antagonist_ratio): Boarderline: less than 50% efficacy (38.5%) |
| CC/C(=C(\c1ccc(O)cc1)c1ccc(OCCNC)cc1)c1ccccc1 [endoxifen] |  |  |  |  |  |  |  |  |  |  |  |  |  |  |  |  |  | potent inhibitors |  |  |  |
| CC/C(=C(\c1ccccc1)c1ccc(OCCN(C)C)cc1)c1ccccc1 [Tamoxifen, reference compound] | Inconclusive |  |  | > 3.16 µM | > 1 µM |  |  | 19/21 positive | Endocrine Disruption Potential.Significant Estrogen Receptor activity seen | Moderate antagonist | Endocrine Disruption Potential.Significant Estrogen Receptor activity seen | 9/17 Positive |  | Positive for agonism and antagonism | ER agonist and antagonist | Positive | Positive | no appreciable inhibition | AUC = 0.042, then there is no significant interaction. | 0.45 | ToxCast Pathway Model interaction [14]: significant interaction; ToxCast 1: (assays Comments) ([8]; comment on all active AR assays): There is binding, but only one concentration above the baseline, (noisy data); ToxCast (Aromatase assays), assay listed as active ([9]; each listed assay name = active assay): TOX21_Aromatase_Inhibition; also recorded: TOX21_Aromatase_Inhibition_viability |
| CC/C(=C(\c1ccccc1)c1ccc(OCCNC)cc1)c1ccccc1 [N-desmethyl-tamoxifen] |  |  |  |  |  |  |  |  |  |  |  |  |  |  |  |  |  | potent inhibitors |  |  |  |
| O=C(O)c1ccc(C(=O)O)cc1 [Terephthalic acid, terephthalic acid] | Negative | Negative | Negative | > 100 µM | > 100 µM | Boarderline: less than 50% efficacy (31.34%) | OT_ER_ERaERb_1440 | 1/18 Positive |  | Negative |  | 0/14 positive | 0/2 positive | Negative | Negative | Negative | Negative |  | AUC = 0, then there is no significant interaction. | 0 | ToxCast Pathway Model interaction [14]: NO significant interaction |
